Assay results reported in the supplement of paper PMC11451515.

System: SEM cells
Experiment: cell viability relative to DMSO control; higher = less cytotoxic
Conditions: 48 h
How it was run: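 Library compounds in DMSO were pin-dosed into 1536-well plates (5 μl) holding NOMO1 or SEM (500 cells/well) or P12-Ichikawa (1000 cells/well) leukemia cells, across an 11-point threefold series of 47 μM to 0.79 nM. Each cell line had been adapted for at least four passages in each medium. CellTiter-Glo One luminescence was read after 48 h at 37°C. Viability is the per-plate percentage relative to DMSO wells, with cell-free wells as background.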

[1] = HPLM + 10% dialyzed FBS, 0.000781 µM
[2] = HPLM + 10% dialyzed FBS, 0.00234 µM
[3] = HPLM + 10% dialyzed FBS, 0.00702 µM
[4] = HPLM + 10% dialyzed FBS, 0.0211 µM
[5] = HPLM + 10% dialyzed FBS, 0.0632 µM
[6] = HPLM + 10% dialyzed FBS, 0.19 µM
[7] = HPLM + 10% dialyzed FBS, 0.569 µM
[8] = HPLM + 10% dialyzed FBS, 1.71 µM
[9] = HPLM + 10% dialyzed FBS, 5.12 µM
[10] = HPLM + 10% dialyzed FBS, 15.4 µM
[11] = HPLM + 10% dialyzed FBS, 46.1 µM
[12] = RPMI 5 mM glucose + 10% FBS, 0.000781 µM
[13] = RPMI 5 mM glucose + 10% FBS, 0.00234 µM
[14] = RPMI 5 mM glucose + 10% FBS, 0.00702 µM
[15] = RPMI 5 mM glucose + 10% FBS, 0.0211 µM
[16] = RPMI 5 mM glucose + 10% FBS, 0.0632 µM
[17] = RPMI 5 mM glucose + 10% FBS, 0.19 µM
[18] = RPMI 5 mM glucose + 10% FBS, 0.569 µM
[19] = RPMI 5 mM glucose + 10% FBS, 1.71 µM
[20] = RPMI 5 mM glucose + 10% FBS, 5.12 µM
[21] = RPMI 5 mM glucose + 10% FBS, 15.4 µM
[22] = RPMI 5 mM glucose + 10% FBS, 46.1 µM
[23] = RPMI 5 mM glucose + 10% dialyzed FBS, 0.000781 µM
[24] = RPMI 5 mM glucose + 10% dialyzed FBS, 0.00234 µM
[25] = RPMI 5 mM glucose + 10% dialyzed FBS, 0.00702 µM
[26] = RPMI 5 mM glucose + 10% dialyzed FBS, 0.0211 µM
[27] = RPMI 5 mM glucose + 10% dialyzed FBS, 0.0632 µM
[28] = RPMI 5 mM glucose + 10% dialyzed FBS, 0.19 µM
[29] = RPMI 5 mM glucose + 10% dialyzed FBS, 0.569 µM
[30] = RPMI 5 mM glucose + 10% dialyzed FBS, 1.71 µM
[31] = RPMI 5 mM glucose + 10% dialyzed FBS, 5.12 µM
[32] = RPMI 5 mM glucose + 10% dialyzed FBS, 15.4 µM
[33] = RPMI 5 mM glucose + 10% dialyzed FBS, 46.1 µM

Compound | cell viability [1] | cell viability [2] | cell viability [3] | cell viability [4] | cell viability [5] | cell viability [6] | cell viability [7] | cell viability [8] | cell viability [9] | cell viability [10] | cell viability [11] | cell viability [12] | cell viability [13] | cell viability [14] | cell viability [15] | cell viability [16] | cell viability [17] | cell viability [18] | cell viability [19] | cell viability [20] | cell viability [21] | cell viability [22] | cell viability [23] | cell viability [24] | cell viability [25] | cell viability [26] | cell viability [27] | cell viability [28] | cell viability [29] | cell viability [30] | cell viability [31] | cell viability [32] | cell viability [33]
COc1ccccc1OCCNCC(O)COc1cccc2[nH]c3ccccc3c12 (configuration not stated) | 114% | 131% | 105% | 126% | 115% | 123% | 124% | 134% | 115% | 113% | 87.3% | 107% | 114% | 98.6% | 118% | 125% | 123% | 121% | 133% | 124% | 96.3% | 91.6% | 115% | 117% | 91.8% | 119% | 120% | 132% | 119% | 128% | 118% | 107% | 93.5%
COC1=CC(=CC=C1)C2=CC=C(NC(=O)/C3=C(/CCC3)C(O)=O)C(=C2)F | 103% | 109% | 116% | 108% | 122% | 108% | 119% | 107% | 104% | 104% | 76.6% | 92.5% | 108% | 112% | 116% | 127% | 120% | 121% | 118% | 107% | 111% | 42.8% | 95.6% | 115% | 109% | 113% | 103% | 109% | 105% | 111% | 111% | 78.2% | 30.9%
CN1CCN(Cc2ccc(NC(=O)Nc3ccc(Oc4cc(NC(=O)C5CC5)ncn4)cc3)cc2C(F)(F)F)CC1 | 86.5% | 72.2% | 54.1% | 53.4% | 51.4% | 25% | 6.43% | 5.04% | 3.88% | 3.17% | 0.399% | 103% | 80.1% | 53.9% | 49.1% | 41.6% | 23% | 4.1% | 2.81% | 2.25% | 1.45% | 0.371% | 94.9% | 72.4% | 44.6% | 36.5% | 46% | 23.7% | 5.01% | 4.22% | 3.2% | 2.37% | 0.407%
OC(CCN1CCCCC1)(C2CC\3CC2\C=C3)C4=CC=CC=C4 (configuration not stated) | 102% | 110% | 113% | 97.7% | 123% | 120% | 121% | 94.8% | 118% | 129% | 126% | 94.9% | 126% | 115% | 91% | 122% | 119% | 116% | 107% | 123% | 134% | 121% | 104% | 104% | 113% | 70.2% | 129% | 113% | 127% | 120% | 132% | 136% | 131%
